Experimental findings from patent US9670142B2, “1,3-diaminocyclopentane carboxamide derivatives” (Merck Patent GmbH, priority 2013, dated 2017) are described below.

Structures are written as SMILES.

human fatty acid synthase FASN, sequence (P49327 whole entry): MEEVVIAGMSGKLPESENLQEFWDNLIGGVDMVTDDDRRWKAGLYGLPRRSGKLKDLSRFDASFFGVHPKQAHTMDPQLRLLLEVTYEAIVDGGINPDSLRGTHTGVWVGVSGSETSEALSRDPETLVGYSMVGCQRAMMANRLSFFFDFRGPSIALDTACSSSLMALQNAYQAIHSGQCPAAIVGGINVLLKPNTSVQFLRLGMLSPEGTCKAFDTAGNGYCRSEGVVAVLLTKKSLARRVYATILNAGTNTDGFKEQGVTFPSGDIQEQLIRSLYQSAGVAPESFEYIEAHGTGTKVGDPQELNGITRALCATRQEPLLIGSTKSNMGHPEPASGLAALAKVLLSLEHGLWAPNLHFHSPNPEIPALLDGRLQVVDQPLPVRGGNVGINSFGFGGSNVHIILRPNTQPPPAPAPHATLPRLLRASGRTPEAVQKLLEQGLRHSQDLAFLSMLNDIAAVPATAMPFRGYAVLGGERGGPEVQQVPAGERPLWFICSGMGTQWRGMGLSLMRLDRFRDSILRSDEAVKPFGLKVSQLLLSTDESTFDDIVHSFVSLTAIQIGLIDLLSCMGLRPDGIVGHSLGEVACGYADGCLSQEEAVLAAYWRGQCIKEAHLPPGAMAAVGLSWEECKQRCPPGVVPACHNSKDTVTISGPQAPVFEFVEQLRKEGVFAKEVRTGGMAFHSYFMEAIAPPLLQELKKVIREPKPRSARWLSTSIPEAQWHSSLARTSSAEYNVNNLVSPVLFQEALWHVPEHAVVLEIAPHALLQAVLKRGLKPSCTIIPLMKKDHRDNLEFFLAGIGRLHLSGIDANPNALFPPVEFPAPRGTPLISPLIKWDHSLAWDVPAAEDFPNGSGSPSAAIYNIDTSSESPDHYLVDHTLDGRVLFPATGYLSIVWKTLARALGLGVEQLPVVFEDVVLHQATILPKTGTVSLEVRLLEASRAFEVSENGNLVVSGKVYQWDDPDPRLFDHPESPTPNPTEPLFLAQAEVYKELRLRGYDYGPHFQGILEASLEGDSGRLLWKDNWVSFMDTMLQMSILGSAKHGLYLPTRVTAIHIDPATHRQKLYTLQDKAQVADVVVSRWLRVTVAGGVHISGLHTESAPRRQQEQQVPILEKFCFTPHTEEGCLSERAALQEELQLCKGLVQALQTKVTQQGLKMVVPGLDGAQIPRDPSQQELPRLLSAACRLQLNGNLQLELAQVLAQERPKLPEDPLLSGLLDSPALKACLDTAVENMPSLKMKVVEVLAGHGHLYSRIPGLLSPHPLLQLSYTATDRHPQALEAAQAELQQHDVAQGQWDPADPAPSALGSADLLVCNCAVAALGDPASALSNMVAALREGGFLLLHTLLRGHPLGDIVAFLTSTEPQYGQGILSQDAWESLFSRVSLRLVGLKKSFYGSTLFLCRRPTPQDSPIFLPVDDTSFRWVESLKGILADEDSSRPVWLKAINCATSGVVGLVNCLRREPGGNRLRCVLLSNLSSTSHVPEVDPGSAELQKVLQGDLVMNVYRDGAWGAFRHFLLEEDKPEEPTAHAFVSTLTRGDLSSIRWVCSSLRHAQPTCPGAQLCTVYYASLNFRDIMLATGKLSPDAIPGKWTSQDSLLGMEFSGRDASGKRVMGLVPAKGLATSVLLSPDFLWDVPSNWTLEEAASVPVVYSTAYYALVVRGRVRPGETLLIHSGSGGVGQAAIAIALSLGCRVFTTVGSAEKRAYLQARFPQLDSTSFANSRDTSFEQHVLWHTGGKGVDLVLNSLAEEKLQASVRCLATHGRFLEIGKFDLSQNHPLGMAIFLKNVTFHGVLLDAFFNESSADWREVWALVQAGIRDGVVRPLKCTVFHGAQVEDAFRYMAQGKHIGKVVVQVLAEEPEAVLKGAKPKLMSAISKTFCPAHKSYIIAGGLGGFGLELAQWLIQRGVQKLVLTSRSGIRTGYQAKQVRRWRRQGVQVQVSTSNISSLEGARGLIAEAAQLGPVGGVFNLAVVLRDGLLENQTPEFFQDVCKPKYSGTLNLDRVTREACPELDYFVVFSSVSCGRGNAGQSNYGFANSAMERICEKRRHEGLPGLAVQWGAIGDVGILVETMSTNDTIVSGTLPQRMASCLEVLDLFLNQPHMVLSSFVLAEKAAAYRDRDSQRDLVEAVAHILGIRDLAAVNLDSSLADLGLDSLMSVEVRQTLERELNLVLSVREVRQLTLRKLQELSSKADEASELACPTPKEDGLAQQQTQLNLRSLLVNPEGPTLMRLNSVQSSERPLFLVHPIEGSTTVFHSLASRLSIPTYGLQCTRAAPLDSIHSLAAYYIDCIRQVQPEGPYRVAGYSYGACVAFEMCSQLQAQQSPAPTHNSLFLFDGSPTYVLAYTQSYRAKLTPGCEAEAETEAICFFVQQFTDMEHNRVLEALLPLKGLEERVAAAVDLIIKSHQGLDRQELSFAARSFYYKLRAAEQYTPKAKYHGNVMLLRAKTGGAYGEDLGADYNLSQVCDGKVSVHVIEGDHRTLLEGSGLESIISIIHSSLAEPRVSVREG

The target of the assay is human fatty acid synthase FASN (Homo sapiens (Human), UniProt P49327). Briefly: Biochemical activity testing of human fatty acid synthase FASN (NADPH fluorescence intensity enzyme assay). Conditions: human recombinant full-length fatty acid synthase. An excerpt:
Biochemical activity testing of human fatty acid synthase FASN
Fatty acid synthase FASN is a multifunctional enzyme with seven catalytic activities thereby synthesising long chain fatty acids especially palmitoyl-CoA in the presence of co-factor NADPH starting from the substrates acetyl-CoA and malonyl-CoA. The reductive synthesis is realized by the oxidation of NADPH to NADP. Since NADPH has a high fluorescence intensity quantum yield compared to NADP with excitation at 340 nm and emission at 460 nm, the reaction can be monitored via the decrease in fluorescence intensity. The biochemical FASN activity testing was performed as 384 well two-time-point kinetic fluorescence intensity assay format in Greiner low volume medium binding 384-well black microtiter plates in a total assay volume of 8 μl and was used for high throughput screen. In each well 3 μl 40 nM human recombinant full-length fatty acid synthase (produced in-house in SF9 cells) were dispensed in the following assay buffer: 50 mM potassium phosphate buffer pH 7.0, 0.005% (w/v) BSA, 2 mM Glutathione, 0.02% Tween-20. Then 2 μl of 200 μM NADPH in assay buffer were added, followed by the addition of the test compounds in 10 dilution concentrations starting with 30 μM (final concentration) to get a final DMSO content of 1% (v/v). The mixture was incubated for at least 15 min at room temperature. After the pre-incubation the enzymatic reaction was started by the addition of 2 μl substrate solution (80 μM acetyl-CoA, 240 μM malonyl-CoA). A first fluorescence intensity measurement (time point one) was performed with an Envision multimode reader (Perkin Elmer LAS Germany GmbH) at excitation wavelength 340 nm (lamp mode) and emission wavelength 460 nm. The reaction was incubated for 30 minutes at room temperature. After this the fluorescence intensity was measured again in the Envision using the same parameters as described above (second time point measurement). The data were analysed by subtracting the first time point measurement value from the second time point measurement value (after the enzymatic reaction). The differences of the emission signals were determined. These reflect directly the conversion rate of NADPH. The full value used was the inhibitor-free reaction. A pharmacological zero value was used like GSK837149A (Sigma-Aldrich) in a final concentration of 5-10 μM. The inhibitory values (IC50) were determined using either the program Symyx Assay Explorer® or Condosseo® from GeneData.
The IC50 is the midpoint of a concentration-inhibition curve. Regarding `CCC(=O)N[C@H]1CC[C@@H](N(C)C(=O)c2ccc(C#Cc3ccc(Cl)cc3)cc2)C1` [Compound A14, 4-(4-chloro-phenylethynyl)-N-methyl-N-((1R,3S)-3-propionylamino-cyclopentyl)-benzamide], the concentration for half-maximal inhibition (IC50) is less than 300 nM.
With `CCC(=O)N[C@H]1CC[C@@H](N(C)C(=O)c2ccc(-c3ccc(C)c(F)c3)cc2)C1` [Compound A66, 3′-fluoro-4′-methyl-biphenyl-4-carboxylic acid methyl-((1R,3S)-3-propionylamino-cyclopentyl)-amide], the 50% inhibitory concentration (IC50) is less than 300 nM.
Consider `CCCC1CCC(c2ccc(-c3ccc(C(=O)N(C)[C@@H]4CC[C@H](NC(=O)CC)C4)cc3)cc2)OC1` (stereo partly drawn) [Compound A89, 4′-(5-propyl-tetrahydro-pyran-2-yl)-biphenyl-4-carboxylic acid methyl-((1R,3S)-3-propionylamino-cyclopentyl)-amide], for which the IC50 was in the range of 300 to 3000 nM.
Consider `CCC(=O)N[C@H]1CC[C@@H](N(C)C(=O)c2ccc(-c3nc4ccccc4[nH]3)cc2)C1` [Compound A7, 4-(1H-benzimidazol-2-yl)-N-methyl-N-((1R,3S)-3-propionylamino-cyclopentyl)-benzamide], for which the half-inhibitory concentration (IC50) is less than 300 nM.
For `CCC(=O)N[C@H]1CC[C@@H](N(C)C(=O)c2ccc(-c3ccc4cc[nH]c4c3)cc2)C1` [Compound A67, 4-(1H-indol-6-yl)-N-methyl-N-((1R,3S)-3-propionylamino-cyclopentyl)-benzamide], the 50% inhibitory concentration (IC50) is less than 300 nM.
Turning to `CCC(=O)N[C@H]1CC[C@@H](N(C)C(=O)c2ccc(-c3cc4cn[nH]c4cc3C)cn2)C1` [Compound A103, 5-(6-methyl-1H-indazol-5-yl)-pyridine-2-carboxylic acid methyl-((1R,3S)-3-propionylamino-cyclopentyl)-amide], the half-maximal inhibitory concentration (IC50) lay within 300 to 3000 nM.
Regarding `CCC(=O)N[C@H]1CC[C@@H](N(C)C(=O)c2ccc(-c3ccc(C(=O)O)cc3)cc2)C1` [Compound A51, 4′-[methyl-((1R,3S)-3-propionylamino-cyclopentyl)-carbamoyl]-biphenyl-4-carboxylic acid], the half-inhibitory concentration (IC50) was less than 300 nM.
On to `CN(C(=O)c1cnc(-c2nc3ccc(Cl)cc3o2)cn1)[C@@H]1CC[C@H](NC(=O)[C@@H]2CCCO2)C1` [Compound A159, 5-(6-chloro-benzoxazol-2-yl)-pyrazine-2-carboxylic acid methyl-{(1R,3S)-3-[((S)-tetrahydro-furan-2-carbonyl)-amino]-cyclopentyl}-amide], for which the IC50 was less than 300 nM.
On to `CCC(=O)N[C@H]1CC[C@@H](N(C)C(=O)c2ncc(-c3ccc4c(ccn4C)c3)cn2)C1` [Compound A133, 5-(1-methyl-1H-indol-5-yl)-pyrimidine-2-carboxylic acid methyl-((1R,3S)-3-propionylamino-cyclopentyl)-amide], for which the half-maximal inhibitory concentration (IC50) was less than 300 nM.
As for `CCC(=O)N[C@H]1CC[C@@H](N(C)C(=O)c2ccc(-c3ccc(C(N)=O)cc3)cc2)C1` [Compound A57, biphenyl-4,4′-dicarboxylic acid 4′-amide 4-[methyl-((1R,3S)-3-propionylamino-cyclopentyl)-amide]], the figure is less than 300 nM; as for `CCC(=O)N[C@H]1CC[C@@H](N(C)C(=O)c2ccc(-c3ccc4[nH]nnc4c3)cc2)C1` [Compound A91, 4-(1H-benzotriazol-5-yl)-N-methyl-N-((1R,3S)-3-propionylamino-cyclopentyl)-benzamide], less than 300 nM.
Take `CCC(=O)N[C@H]1CC[C@@H](N(C)C(=O)c2ccc(-c3ccc4c(ccn4C)c3)nn2)C1` [Compound A118, 6-(1-methyl-1H-indol-5-yl)-pyridazine-3-carboxylic acid methyl-((1R,3S)-3-propionylamino-cyclopentyl)-amide]: the IC50 is less than 300 nM.
For the compound `CCC(=O)N[C@H]1CC[C@@H](N(C)C(=O)c2ccc(-c3nc4ccccc4o3)cc2)C1` [Compound A1, 4-benzoxazol-2-yl-N-methyl-N-((1R,3S)-3-propionylamino-cyclopentyl)-benzamide], the IC50 was less than 300 nM.
Under `CC[C@@H](C)CC(=O)N[C@H]1CC[C@@H](N(C)C(=O)c2ccc(-c3nc4ccccc4o3)cc2)C1` [Compound A31, 4-benzoxazol-2-yl-N-methyl-N-[(1R,3S)-3-((R)-3-methyl-pentanoylamino)-cyclopentyl]-benzamide] stands less than 300 nM.
As to `CN(C(=O)c1ncc(-c2nc3ccc(Cl)cc3o2)cn1)[C@@H]1CC[C@H](NC(=O)[C@@H]2CCCO2)C1` [Compound A149, 5-(6-chloro-benzoxazol-2-yl)-pyrimidine-2-carboxylic acid methyl-{(1R,3S)-3-[((S)-tetrahydro-furan-2-carbonyl)-amino]-cyclopentyl}-amide], the IC50 lay within 300 to 3000 nM.
`CCC(=O)N[C@H]1CC[C@@H](N(C)C(=O)c2ccc(-c3cc4cc[nH]c4cc3F)cc2)C1` [Compound A122, 4-(6-fluoro-1H-indol-5-yl)-N-methyl-N-((1R,3S)-3-propionylamino-cyclopentyl)-benzamide]: the IC50 was less than 300 nM.
As for `CCC(=O)N[C@H]1CC[C@@H](N(C)C(=O)c2ccc(-c3ccc(-c4ccn[nH]4)cc3)cc2)C1` [Compound A81, 4′-(2H-pyrazol-3-yl)-biphenyl-4-carboxylic acid methyl-((1R,3S)-3-propionylamino-cyclopentyl)-amide], the concentration for half-maximal inhibition (IC50) was less than 300 nM.
As for `CCC(=O)N[C@H]1CC[C@@H](N(C)C(=O)c2ccc(-c3ccc4[nH]cc(C#N)c4c3)cc2)C1` [Compound A99a, 4-(3-cyano-1H-indol-5-yl)-N-methyl-N-((1R,3S)-3-propionylamino-cyclopentyl)-benzamide], the IC50 is less than 300 nM.
As for `CN(C(=O)c1ccc(-c2nc3ccccc3o2)cc1)[C@@H]1CC[C@H](NC(=O)C2(C)CC2)C1` [Compound A3, 4-benzoxazol-2-yl-N-methyl-N-{(1R,3S)-3-[(1-methyl-cyclopropanecarbonyl)-amino]-cyclopentyl}-benzamide], the IC50 was less than 300 nM.
Turning to `CCC(=O)N[C@@H]1CC[C@@H](N(C)C(=O)c2ccc(-c3nc4ccccc4o3)cc2)C1` [Compound A165, 4-benzoxazol-2-yl-N-methyl-N-((1R,3R)-3-propionylamino-cyclopentyl)-benzamide], the IC50 fell in the range of 3000 to 50000 nM.
Under `CCC(=O)N[C@H]1CC[C@@H](N(C)C(=O)c2ccc(-c3ccc4[nH]c(=O)[nH]c4c3)cc2)C1` [Compound A93, N-methyl-4-(2-oxo-2,3-dihydro-1H-benzimidazol-5-yl)-N-((1R,3S)-3-propionylamino-cyclopentyl)-benzamide] stands less than 300 nM; under `CN(C(=O)c1ccc(-c2nc3ccccc3o2)cc1)[C@@H]1CC[C@H](NC(=O)c2ccncc2)C1` [Compound A22, N-{(1S,3R)-3-[(4-benzoxazol-2-yl-benzoyl)-methyl-amino]-cyclopentyl}-isonicotinamide], 300 to 3000 nM; under `CCC(=O)N[C@H]1CC[C@@H](N(C)C(=O)c2ccc(-c3ccc4c(cnn4C)c3)cc2)C1` [Compound A75, N-methyl-4-(1-methyl-1H-indazol-5-yl)-N-((1R,3S)-3-propionylamino-cyclopentyl)-benzamide], less than 300 nM.
Consider `CCC(=O)N[C@H]1CC[C@@H](N(C)C(=O)c2ccc(-c3cc(C)c4[nH]ncc4c3)cc2)C1` [Compound A107, N-methyl-4-(7-methyl-1H-indazol-5-yl)-N-((1R,3S)-3-propionylamino-cyclopentyl)-benzamide], for which the half-maximal inhibitory concentration (IC50) was less than 300 nM.
As for `CCC(=O)N[C@H]1CC[C@@H](N(C)C(=O)c2ccc(-c3ccc(C(C)(C)C)cc3)cc2)C1` [Compound A55, tert-butyl-biphenyl-4-carboxylic acid methyl-((1R,3S)-3-propionylamino-cyclopentyl)-amide], the figure is 3000 to 50000 nM; as for `CCC(=O)N[C@H]1CC[C@@H](N(C)C(=O)c2ccc(-c3cc(F)c4c(c3)CCN4)nc2)C1` [Compound A145, 6-(7-fluoro-2,3-dihydro-1H-indol-5-yl)-N-methyl-N-((1R,3S)-3-propionylamino-cyclopentyl)-nicotinamide], 300 to 3000 nM.
As for `CCC(=O)N[C@H]1CC[C@@H](N(C)C(=O)c2ccc(-c3ccc(Cl)cc3)cc2)C1` [Compound A5, 4′-chloro-biphenyl-4-carboxylic acid methyl-((1R,3S)-3-propionylamino-cyclopentyl)-amide], the half-maximal inhibitory concentration (IC50) is less than 300 nM.
For `CCC(=O)N[C@H]1CC[C@@H](N(C)C(=O)c2ccc(-c3ccc4[nH]ccc4c3)cc2C)C1` [Compound A120, 4-(1H-indol-5-yl)-2,N-dimethyl-N-((1R,3S)-3-propionylamino-cyclopentyl)-benzamide], the half-maximal inhibitory concentration (IC50) was less than 300 nM.
